Entries after “also recorded” stand apart in the source; their conditions may differ.
Test system: bleomycin (BLM)-induced lung fibrosis
Test: Treatment model of bleomycin (BLM)-induced lung fibrosis
Assay type: in vivo, mice
Conditions: for interstitial fibronectin / lung histology: daily intraperitoneal 0.5 mg/kg from day 14, day 28; for BLM induction of profibrotic genes (collagen 1, connective tissue growth factor, fibronectin), qPCR of lung tissue / total collagen production induced by bleomycin (hydroxyproline content): daily intraperitoneal from day 14, day 28; for peripheral blood oxygen saturation (SpO2) / gas exchange: 2-week treatment interval from day 14
Protocol: FIGS. 5A-D. Bleomycin (BLM)-induced lung remodeling is attenuated by TAT-SH3-2. (A) Hematoxylin and Eosin (H&E), Masson's Trichrome (MT), or fibronectin (anti-fibronectin and Hematoxylin) staining of representative paraffin-embedded lung sections from Control (saline treated) or mice challenged with BLM for 28 days and treated daily with 0.5 mg/kg TAT-SH3-2 or TAT-SH3-2M beginning 14 days following initial BLM insult (×8). (B) qPCR of the indicated genes (Col1, collagen 1; CTGF, connective tissue growth factor; FN, fibronectin) in murine lung tissue harvested on day 28 from mice challenged with BLM (+) or saline (−) and treated daily with vehicle (−; methocel/saline) or the indicated amount (μg) of TAT-SH3-2 or TAT-SH3-2M as in (A). Data reflect mean+/−sd of n=4. (C) Mice were treated with saline or BLM as in (A) and on day 14 administered daily vehicle (−) or the indicated concentration of TAT peptide. Animals were sacrificed on day 28, and hydroxyproline content was determined as described herein. Data reflect mean+/−sd of n=3. *P<0.005, **P<0.002. (D) Mice were treated as in (C), and qPCR of the indicated genes (Col Iα1 (collagen Iα1); CTGF (connective tissue growth factor); and FN (fibronectin)) were assessed in lung tissue harvested on day 28. Data reflect mean+/−sd of n=5. *P<0.005, **P<0.001.
Time-dependent fluctuation of oxygen saturation (SpO2) levels (determined on room air) in mice challenged with BLM (or saline) for 28 days and treated 1×/day with vehicle (methocel/saline), 0.5 mg/kg of TAT-SH3-2 or TAT-SH3-2M beginning 14 days after initial BLM insult. Error bars reflect SEM from n=4. (B) Time-dependent fluctuation of oxygen saturation (SpO2) levels (determined on room air) in mice challenged with BLM (or saline) for 28 days and treated 1×/day with vehicle (methocel/saline) or the indicated concentration of TAT-SH3-2 or TAT-SH3-2M beginning 14 days after initial BLM insult. Error bars reflect mean+/−sd from n=5. *P<0.05, **P<0.01.
Female 18-20 g C57 black mice (Charles River Laboratories) were administered bleomycin (BLM; 0.075 U diluted in 50 μL 0.9% normal saline) or 50 μL 0.9% normal saline alone by tracheal instillation using an intratracheal aerosolized (Penn-century, Wyndmoor, Pa.) as described elsewhere (Andrianifahanana et al., FASEB J., 27(11):4444-54 (2013)). At this time, animals were shaved around the collar region to allow monitoring of dissolved oxygen levels (every 3rd day) on room air using a MouseOX collar clip monitoring system (Starr Life Science Corp. Oakmont, Pa.). TAT-SNX9(SH3) fusion polypeptides were solubilized with DMSO and prepared by thoroughly blending with Methocel (Sigma, Louis, Mo.) at a ratio of 1:7. Mice were treated daily by intraperitoneal injection (100 μL) of a TAT-SNX9(SH3) fusion polypeptide or an equal volume of methocel/saline beginning on day 14. On day 28, mice were euthanized, lungs were dissected, and samples were prepared for immunohistochemistry and other analyses as described elsewhere (Andrianifahanana et al., FASEB J., 27(11):4444-54 (2013); Daniels et al., J. Clin. Invest., 114:1308-16 (2004); and Wang et al., FASEB J., 19:1-11 (2005)).
The Hydroxyproline Assay Kit from Sigma (St. Louis, Mo.) was used to assess total lung collagen levels. Briefly, following sacrifice lung tissue was washed in PBS, and 30 mg homogenized in 300 μL water. One hundred μL samples were hydrolyzed in 12 M HCl, and duplicate 50 μL samples were analyzed according to the manufacturer's recommendations.

Row | Substance | BLM-induced lung remodeling (FIG. 5 title) | loss of lung function (SpO2) (animals receiving the highest concentration, FIG. 6B) | interstitial fibronectin | lung histology | BLM induction of profibrotic genes (collagen 1, connective tissue growth factor, fibronectin), qPCR of lung tissue | total collagen production induced by bleomycin (hydroxyproline content) | peripheral blood oxygen saturation (SpO2) / gas exchange (room air) | peripheral blood oxygen saturation (SpO2) / gas exchange (room air, listed as TAT-SH-2) | decrease in SpO2 during the treatment regime (room air, FIG. 6B)
1 | TAT-SH3-2: TAT-SNX9(SH3) fusion polypeptide having SNX9 amino acids 21-51 (31 mer) (TVNEGEIITITNPDVGGGWLEGRNIKGERGL; left off: small tags and cut ends) | attenuated | no additional loss of lung function | reduced interstitial fibronectin to essentially basal levels | improved lung histology | significantly reduced | dose-dependent dimunization in total collagen production | stabilized and/or improved gas exchange; also recorded: dose-dependent improvement in gas exchange | stabilizes lung gas exchange | 
2 | TAT-SH3-2M: TAT-SH3-2 with G to V point mutations at amino acids 36-38; inactive TAT-SNX9 peptide unable to bind pSmad3 (TVNEGEIITITNPDVVVVWLEGRNIKGERGL; left off: small tags and cut ends) |  |  | ineffective | ineffective | but not TAT-SH3-2M, significantly reduced | ineffective | analogous decline in SpO2 |  | ~25%

Reference: US10144929B2, “Polypeptide inhibitors of Smad3 polypeptide activities” (Mayo Foundation for Medical Education and Research, priority 2016, dated 2018)
